# Counter-ions that a name gives are not always drawn.
# Test system: A. thaliana
# Assay: Herbicidal activity assay, post-emergence, pots
# Type: in vivo, Arabidopsis thaliana Col-0
# Settings: A. thaliana Col-0; post-emergence treatments at three and six days after germination; grown 16 days after treatment
# Experimental: (§1) A range of compounds of the invention were assessed for herbicidal activity against A. thaliana. A. thaliana Col-0 seeds (˜30) were sown in 63×63×59 mm pots consisting of Irish peat that was pre-wet prior to sowing. Seeds were cold-treated for 3 days in the dark at 4° C. to synchronise germination and then grown in a chamber at 22° C., with 60% relative humidity and in a 16 h light/8 h dark photoperiod. Compounds of the invention were initially dissolved in dimethyl sulfoxide (DMSO) at 20 mg/mL and further diluted in water prior to treatments. The surfactant Brushwet (SST Australia) was added to a final concentration of 0.02%. The carrier DMSO was used as a negative control. Seeds or seedlings were treated with solutions of compound that contained 2% of DMSO, using a pipette. Post-emergence treatments were done at three and six days after germination. Seedlings were grown for 16 days after treatment before photos were taken.
# The results of this study are represented in the following table, where compounds of the invention are represented by number, and herbicidal activity is represented using the following: ≤125 μM=+++, ≤500 μM=++, ≤2000 μM=+
# as §1, with “A.” for “A range of compounds of the invention were assessed for herbicidal activity against A. thaliana. A.”, “Compounds” for “Compounds of the invention”
row,SMILES,Active at
1,CC(=NNC(=O)Nc1cccc(F)c1)c1ncccc1C(=O)OCCN(C)C.Cl [2-(Dimethylamino)ethyl 2-[1-[2-[[(3-fluorophenyl)amino]carbonyl]hydrazinylidene]ethyl]-3-pyridinecarboxylate hydrochloride],125 µM
2,"CC(C)C1(C)N=C(c2ncccc2C(=O)OCCN(C)C)NC1=O.Cl (stereo not shown) [2-(Dimethylamino)ethyl 2-[4,5-dihydro-4-methyl-4-(1-methylethyl)-5-oxo-1H-imidazol-2-yl]-3-pyridinecarboxylate hydrochloride]",500 µM
3,"CN(C)CCOC(=O)c1nc(Cl)ccc1Cl.Cl [3,6-dichloropyridine-2-carboxylic acid 2-(dimethylamino)ethyl ester hydrochloride]",125 µM
4,"CN(C)CCOC(=O)c1nc(Cl)ccc1Cl [3,6-dichloropyridine-2-carboxylic acid 2-(dimethylamino)ethyl ester]",125 µM
5,"CN(C)CCOC(=O)c1c(Cl)ccc2cc(Cl)cnc12.Cl [3,7-dichloroquinoline-8-carboxylic acid 2-(dimethylamino)ethyl ester hydrochloride]",2000 µM
6,"CN(C)CCOC(=O)c1c(Cl)ccc2cc(Cl)cnc12 [3,7-dichloroquinoline-8-carboxylic acid 2-(dimethylamino)ethyl ester]",2000 µM

# Same assay, conditions: Arabidopsis thaliana, 384 h; A. thaliana Col-0; post-emergence treatments at three and six days after germination; grown 16 days after treatment
row,SMILES,minimal effective concentration
1,O=C(O)CC(O)(CC(=O)O)C(=O)O [1. citrate],≤ 125 µM
2,"COc1c(Cl)ccc(Cl)c1C(=O)OCCN(C)C [Compound 1, 2-(dimethylamino)ethyl 3,6-dichloro-2-methoxybenzoate]",≤ 500 µM
3,"CCN(CC)CCOC(=O)c1c(Cl)ccc(Cl)c1OC [Compound 2, 2-(diethylamino)ethyl 3,6-dichloro-2-methoxybenzoate]",≤ 125 µM
4,"COc1c(Cl)ccc(Cl)c1C(=O)OCCN(C(C)C)C(C)C [Compound 3, 2-(dipropan-2-ylamino)ethyl 3,6-dichloro-2-methoxybenzoate]",≤ 500 µM
5,"CCCCN(CCCC)CCOC(=O)c1c(Cl)ccc(Cl)c1OC [Compound 4, 2-(dibutylamino)ethyl 3,6-dichloro-2-methoxybenzoate]",≤ 125 µM
6,"COc1c(Cl)ccc(Cl)c1C(=O)OCCN1CCCC1 [Compound 5, 2-(pyrrolidin-1-yl)ethyl 3,6-dichloro-2-methoxybenzoate]",≤ 500 µM
7,"COc1c(Cl)ccc(Cl)c1C(=O)OCCN1CCCCC1 [Compound 6, 2-(piperidin-1-yl)ethyl 3,6-dichloro-2-methoxybenzoate]",≤ 2000 µM
8,"COc1c(Cl)ccc(Cl)c1C(=O)OCCN1CCOCC1 [Compound 7, 2-(morpholin-4-yl)ethyl 3,6-dichloro-2-methoxybenzoate]",≤ 125 µM
9,"COc1c(Cl)ccc(Cl)c1C(=O)OCCN1CCN(C)CC1 [Compound 8, 2-(4-methylpiperazin-1-yl)ethyl 3,6-dichloro-2-methoxybenzoate]",≤ 2000 µM
10,"COc1c(Cl)ccc(Cl)c1C(=O)OC1CCN(C)CC1 [Compound 9, 1-methylpiperidin-4-yl 3,6-dichloro-2-methoxybenzoate]",≤ 2000 µM
11,"COc1c(Cl)ccc(Cl)c1C(=O)OCC1CCCN1C (stereo not shown) [Compound 10, (1-methylpyrrolidin-2-yl)methyl 3,6-dichloro-2-methoxybenzoate]",≤ 500 µM
12,"COc1c(Cl)ccc(Cl)c1C(=O)OCCc1ccccn1 [Compound 11, 2-(pyridin-2-yl)ethyl 3,6-dichloro-2-methoxybenzoate]",≤ 125 µM
13,"COc1c(Cl)ccc(Cl)c1C(=O)OCCCN(C)C [Compound 12, 3-(dimethylamino)propyl 3,6-dichloro-2-methoxybenzoate]",≤ 2000 µM
14,"COc1c(Cl)ccc(Cl)c1C(=O)OCCCCCCN(C)C [Compound 14, 6-(dimethylamino)hexyl 3,6-dichloro-2-methoxybenzoate]",≤ 125 µM
15,"COc1c(Cl)ccc(Cl)c1C(=O)OCCCCCCCCN(C)C [Compound 15, 8-(dimethylamino)octyl 3,6-dichloro-2-methoxybenzoate]",≤ 500 µM
16,"COc1c(Cl)ccc(Cl)c1C(=O)OCCOCCN(C)C [Compound 16, 2-(2-(dimethylamino)ethoxy)ethyl 3,6-dichloro-2-methoxybenzoate]",≤ 500 µM
17,"COc1c(Cl)ccc(Cl)c1C(=O)OCCN(C)CCO [Compound 17, 2-((2-hydroxyethyl)(methyl)amino)ethyl 3,6-dichloro-2-methoxybenzoate]",≤ 2000 µM
18,"COc1c(Cl)ccc(Cl)c1C(=O)OCCN(C)CCOC(=O)c1c(Cl)ccc(Cl)c1OC [Compound 18, (Methylazanediyl)bis(ethane-2,1-diyl) bis(3,6-dichloro-2-methoxybenzoate)]",≤ 125 µM
19,"COc1c(Cl)ccc(Cl)c1C(=O)OCCN [Compound 19, 2-aminoethyl 3,6-dichloro-2-methoxybenzoate]",≤ 500 µM
20,"CNCCOC(=O)c1c(Cl)ccc(Cl)c1OC [Compound 20, 2-(methylamino)ethyl 3,6-dichloro-2-methoxybenzoate]",≤ 500 µM
21,"COc1c(Cl)ccc(Cl)c1C(=O)OCC(C)(C)N [Compound 21, 2-amino-2-methylpropyl 3,6-dichloro-2-methoxybenzoate]",≤ 500 µM
22,"COc1c(Cl)ccc(Cl)c1C(=O)OC(C)CN (stereo not shown) [Compound 22, 1-aminopropan-2-yl 3,6-dichloro-2-methoxybenzoate]",≤ 2000 µM
23,"COc1c(Cl)ccc(Cl)c1C(=O)OCCCN [Compound 23, 3-aminopropyl 3,6-dichloro-2-methoxybenzoate]",≤ 125 µM
24,"CCN(CCOC(=O)c1c(Cl)ccc(Cl)c1OC)c1ccccc1 [Compound 24, 2-(ethyl(phenyl)amino)ethyl 3,6-dichloro-2-methoxybenzoate]",≤ 500 µM
25,"COc1c(Cl)ccc(Cl)c1C(=O)OCCN(Cc1ccccc1)Cc1ccccc1 [Compound 25, 2-(dibenzylamino)ethyl 3,6-dichloro-2-methoxybenzoate]",≤ 2000 µM
26,"COc1c(Cl)ccc(Cl)c1C(=O)OC(CN(C)C)CN(C)C [Compound 26, 1,3-bis(dimethylamino)propan-2-yl 3,6-dichloro-2-methoxybenzoate]",≤ 125 µM
27,"COc1c(Cl)ccc(Cl)c1C(=O)SCCN(C)C [Compound 27, S-(2-(dimethylamino)ethyl) 3,6-dichloro-2-methoxybenzene-1-carbothioate]",≤ 125 µM
28,"CCN(CC)CCSC(=O)c1c(Cl)ccc(Cl)c1OC [Compound 28, S-(2-(diethylamino)ethyl) 3,6-dichloro-2-methoxybenzene-1-carbothioate]",≤ 125 µM

# Test system: Arabidopsis thaliana
# Assay: Activity of 2,4-DB esters compared with 2,4-DB
# Type: in vivo
# Settings: 31.25 μM to 2000 μM; imaged day 12
# Experimental: (§2) Once the Arabidopsis thaliana seeds had germinated, this was Day 0 and an image taken (Treatment—Day 0) to show plants were all at the same stage. Plants were treated either with 2,4-DB or 2-(dimethylamino)ethyl 4-(2,4-dichlorophenoxy)butanoate at concentrations ranging from 31.25 μM to 2000 μM as marked and imaged 12 days later (Treatment—Day 12).
# as §2, with “4-(2,4-dichlorophenoxy)butanoate hydrochloride” for “4-(2,4-dichlorophenoxy)butanoate”
row,SMILES,"activity against Arabidopsis thaliana on an equimolar basis, FIGS. 19 and 20"
1,"O=C(O)CCCOc1ccc(Cl)cc1Cl [2,4-DB, 4-(2,4-dichlorophenoxy)butanoic acid, reference compound]",comparable activity
2,"CN(C)CCOC(=O)CCCOc1ccc(Cl)cc1Cl.Cl [2-(dimethylamino)ethyl 4-(2,4-dichlorophenoxy)butanoate hydrochloride]",comparable activity
3,"CN(C)CCOC(=O)CCCOc1ccc(Cl)cc1Cl [2-(dimethylamino)ethyl 4-(2,4-dichlorophenoxy)butanoate]",comparable activity
